According to US11529391B2, “Reversing deficient hedgehog signaling restores deficient skeletal regeneration” (The Board of Trustees of the Leland Stanford Junior …, priority 2017, dated 2022):
“Also recorded” adds a separate entry of the source.

Columns and labels:
Ihh expression = assay: qRT-PCR of Ihh expression in mSSC and BCSP cultures in supplemented media; type: cell-based, mouse
Procedure: To determine if high levels of glucose or TNFα could directly repress Hh expression in skeletal niches, we cultured FACS-sorted mSSCs and BCSPs from uninjured P3 WT femora in glucose-supplemented, TNFα-supplemented, or control media for 48 hours. […] Furthermore, neutralization of TNFα with anti-TNFα antibodies restored Ihh expression levels in mSSCs cultured in dbLR serum (FIG. 15).
(§1) Cell culture. Cells were maintained in vitro in Minimum Essential Media (MEM) with 10% FBS and 1% penicillin-streptomycin (Penstrep) under 2% O2/7.5% CO2. Each plate was coated with 0.1% gelatin. Cultured cells were lifted using collagenase II buffer (Sigma-Aldrich). For mSSC colony forming assays, cells were cultured for 2 weeks and colonies were counted using phase microscopy. The cells were lifted for staining and analysis by FACS. Osteogenic differentiation medium consisted of Dulbecco's Modified Eagle Medium with 10% FBS, 100 μg/ml ascorbic acid, and 10 mM-glycerophosphate. mSSCs isolated from P3, WT, and db mice were maintained in either regular media (MEM-alpha medium with 10% FBS, 1% Penstrep) or regular media supplemented with Ihh (R&D, […]), Shh (R&D, 500 pg/mL), or PBS under 2% O2/7.5% CO2 conditions. After 7 days, cells were lifted for staining and analysis by FACS or for RNA extraction and qRT-PCR.
Quantitative reverse transcription polymerase chain reaction (qRT-PCR). RNA was isolated from cells using the RNeasy Mini kit (Qiagen) as per manufacturer's instructions. Reverse transcription was performed and gene expression was examined by qRT-PCR using the Applied biosystems Prism 7900HT sequence detection system (Applied Biosystems) and SYBR Green PCR Master Mix (Applied Biosystems). All values were normalized using glyceraldehyde 3-phosphate dehydrogenase for mouse samples and using beta-actin for human samples. Specific primer sequences for genes of interest were obtained from PrimerBank.

WT mice = assay: Femoral fracture healing after Hh antagonism, Mechanical Strength Testing (MST); type: in vivo, mouse; settings: oral gavage immediately after injury, post-fracture week 4, versus untreated
Procedure: (§2) To verify that Hh antagonism impairs fracture repair in vivo, we administered XL139 to WT mice via oral gavage immediately after injury and assessed healing femur strength at post-fracture week 4 using MST.
Femoral fractures. Ten-week old mice were anesthetized with aerosolized isoflurane. Analgesia was administered and the surgical site was prepared prior to skin incision. A medial parapatellar incision was created. The patella was dislocated laterally to expose the femoral condyles. The medullary cavity was reamed using a 25 to 23 G×⅝-inch regular bevel needle (BD) prior to insertion of an intramedullary pin of equal diameter into the medullary cavity. A transverse, middiaphyseal fracture was made using scissors. The pin remained in situ to provide relative stability during healing. The patella was relocated, muscles were reapproximated, and the skin was closed using a 6/0 nylon suture. Animals were radiographed to verify fracture alignment and assess fracture fixation. Animals with fracture displacement were excluded. Pin diameter was adjusted according to femoral cavity lumen diameter to minimize migration.
Mechanical Strength Testing (MST). MST was performed using a delaminator run by R.H. Dauskardt laboratory at Stanford University. […] The maximum load (N) to fracture was recorded (FIG. 9).

[1] = test system: post-fracture day 7 WT mSSCs; assay: In vitro osteogenesis of mSSCs under Hh antagonism, alizarin red staining; type: cell-based, mouse; settings: post-fracture day 7 WT mSSCs treated in vitro
Text: To investigate if Hh signaling is essential for mSSC-dependent osteogenesis, we antagonized Hh signaling in post-fracture day 7 WT mSSCs in vitro using XL139, a small molecule antagonist of Smo.
as §1

mSSCs and BCSPs = assay: FACS count of mSSCs and BCSPs in calluses after Hh antagonism; type: in vivo, mouse; settings: post-fracture day 7 calluses of treated versus untreated WT mice
Procedure: as §2
Isolation of skeletal progenitor cells. Uninjured femora and fractured femora were harvested at post-fracture days 3, 7, 10, 14, 21, and 28. Fracture calluses were dissected using microscopy. Tissues were crushed with mortar and pestle in collagenase buffer (2.2 mg/ml collagenase, DNase, 1000×1 M CaCl2, 100×p188, 50×1 M Hepes, m199 solvent), and heated to 37° C. for 10 min to activate collagenase. Each sample underwent 3 serial digestions at 37° C. for 25 minutes under gentle agitation. Dissociated cells were filtered through a 40 μm nylon mesh and washed in FACS buffer (2% fetal bovine serum in PBS). Each sample was pelleted at 200 g at 4° C. and resuspended in FACS buffer. Then, each sample was layered onto a histopaque gradient prior to centrifugation at 1400 rpm for 15 minutes at room temperature with zero acceleration. The cloudy interphase was aspirated, washed with FACS buffer, and centrifuged. The cells were stained with fluorochrome-conjugated antibodies against CD45, Ter119, Tie2, αv-integrin, Ly 51, CD105, Thy 1.1, and Thy 1.2 for purification by flow cytometry. Cells were sorted twice (once on “yield,” then on “purity”) to increase purity (BD FACS Aria).

Compound | dose dependence of repression of Ihh expression in BCSPs (Ihh expression; BCSP-derived cultures from uninjured P3 mice) | Ihh expression (qRT-PCR) in BCSP cultures (Ihh expression; BCSPs from uninjured P3 WT femora, supplemented media 48 hours versus control media) | Ihh expression (qRT-PCR) in mSSC cultures (Ihh expression; mSSCs from uninjured P3 WT femora, supplemented media 48 hours versus control media) | healing femur strength (MST) (WT mice) | osteogenic potential of mSSCs (alizarin red staining) [1] | number of mSSCs and BCSPs (mSSCs and BCSPs)
TNFα | dose dependent; also recorded: dose-dependent | significantly reduced; also recorded: reduces | significantly reduced; also recorded: significantly diminishes |  |  | 
CNCc1ccc(C)c(NC(=O)c2ccc(Nc3nc(-c4ccccc4)c4ccccc4n3)cc2)c1 [XL139] |  |  |  | reduced significantly | dose-dependent reduction; also recorded: reduces | highly significant reduction
